# From patent publication US9504660B2, “Retinaldehyde mimetics and inhibitors of retinaldehyde dehydrogenase I in the treatment of disorders” (THE BRIGHAM AND WOMEN'S HOSPITAL, INC., priority 2012, dated 2016)
# Tests used:
# [1] = system: RXRa ligand binding domain (LBD); test: Cell-free TR-FRET assay, PGC-1a recruitment to RXRa LBD; type: biochemical
# UCP-1 [2] = test: UCP-1 gene expression in 10T1/2 cells during adipogenic differentiation; type: cell-based, murine; conditions: for effect on Rald-mediated UCP-1 expression: antagonist with Rald
# Protocol: (§1) C3H10T1/2, isolated human stromal-vascular cells and Aldh1a1^−/− MEFs were cultured and differentiated as previously described^8. Briefly, cells were grown to confluence in DMEM, 10% fetal bovine serum (FBS) and 1% penicillin/streptomycin followed by standard adipogenic induction (20 nM insulin, 1 nM T3, 0.5 mM isobutylmethylxanthine, […], 0.125 mM indomethacin) and stimulation with retinoids, retinoid antagonists or vehicle (DMSO) as indicated. After a 48 h induction phase, growth media was supplemented with insulin, T3, and indicated retinoids which were changed every other day up to day 6.
# (§2) Total RNA was extracted (RNeasy, Qiagen, Hi[den, Germany), DNase-treated (Qiagen), and reverse-transcribed to cDNA. Gene expression, normalized to 36B4, was analyzed by quantitative real-time RT-PCR (Sybr Green, 96 well plates) using a MyiQ cycler (Bio-Rad, Hercules, Calif.). Primer sequences are available upon request.
# [3] = system: retinoic acid response element (RARE) luciferase reporter; test: RARE luciferase reporter in undifferentiated 10T1/2 cells; type: cell-based, murine; conditions: 24 h, concentration-dependent
# Protocol: (§3) Cell lysates were harvested 48 h post transfection and luciferase activity quantified by standard luminometer assay and normalized to 3-galactosidase.
# RXR = test: 9cisRA-induced Cyp26a1 expression in 10T1/2 cells; type: cell-based, murine; conditions: data not shown
# Protocol: as §1, §2
# UCP-1 [4] = test: UCP-1 mRNA in shAldh1a1-transfected 10T1/2 cells; type: cell-based, murine; conditions: Rald stimulation (1 pM) in shAldh1a1-treated 10T1/2 cells
# Protocol: as §1
# Mission® shRNA constructs targeting Aldh1a1 and a non-targeting control shRNA were purchased from Sigma. To generate lentivirus particles, shRNA constructs were transfected into HEK293TN cells (SA Biosciences, Frederick, Md.) along with the packaging vectors psPAX and pM2DG. After 72 h, virus-containing supernatant was precipitated using polyethylene glycol (SA Biosciences) and concentrated in PBS (30×). […]
# (§4) Total RNA was extracted (RNeasy, Qiagen, Hi[den, Germany), DNase-treated (Qiagen), and reverse-transcribed to cDNA. Gene expression, normalized to 36B4, was analyzed by quantitative real-time RT-PCR (Sybr Green, 96 well plates) using a MyiQ cycler (Bio-Rad, Hercules, Calif.). […]
# UCP-1 promoter = UCP-1 promoter luciferase reporter in undifferentiated 10T1/2 cells; type: cell-based, murine; conditions: 24 h, increasing concentrations / 1 pM
# Protocol: as §3
# RAR = conditions: ligand displacement assays, reference 37; cited from earlier work
# [5] = biological target: T1, RARa ligand binding domain (LBD) (Homo sapiens, UniProt P10276); test: Cell-free TR-FRET assay, PGC-1a recruitment to RARa LBD; type: biochemical
# T1 construct: purchased Invitrogen
# T1 sequence (P10276 183-417 limits assumed): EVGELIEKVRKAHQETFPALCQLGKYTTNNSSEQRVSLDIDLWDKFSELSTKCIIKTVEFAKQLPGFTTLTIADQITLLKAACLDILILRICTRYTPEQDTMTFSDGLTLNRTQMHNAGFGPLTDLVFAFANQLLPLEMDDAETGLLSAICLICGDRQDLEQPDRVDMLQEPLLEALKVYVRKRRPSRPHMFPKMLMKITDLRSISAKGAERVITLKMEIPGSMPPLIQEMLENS
# Protocol: Lanthascreen” TR-FRET RARa and RXR13 coactivator assays (Invitrogen) were performed as per manufacturer protocol using a PerkinElmer (Waltham, Mass.) EnVision™ fluorescence plate reader.
# UCP-1 [6] = test: UCP-1 expression in differentiating human stromal-vascular cells from subcutaneous fat biopsies; type: cell-based; conditions: 1 pM during differentiation
# Protocol: (§5) Abdominal subcutaneous fat biopsies were obtained from a subject undergoing gastric bypass surgery who gave written informed consent. Fat biopsies were immediately washed with phosphate buffered saline (PBS), minced, and digested (1 mg/mi collagenase, 45 min, 37° C.) in DMEM containing 1% BSA. Digested tissues were filtered through sterile 150 µm nylon mesh and centrifuged (250 g, 5 min). The floating fractions containing adipocytes were discarded and they stromal-vascular fraction pellet was resuspended in erythrocyte lysis buffer (154 mM NH4CI, 10 mM KHCO3, 0.1 mM EDTA, 10 min) to remove red blood cells. The cells were further centrifuged at 500 g for 5 min, plated on a 24-well culture dish and grown, and differentiated to mature adipocytes as described below. MEFs were isolated from Aldh1a1^−/− embryos at embryonic day 14.5 using standard tech niques^43.
# (§6) C3H10T1/2, isolated human stromal-vascular cells and Aldh1a1^−/− MEFs were cultured and differentiated as previously described^8. […]
# as §4
# 3T3-L1 cells = conditions: reference 16; cited from earlier work
# UCP-1 [7] = test: UCP-1 gene expression in Aldh1a1-/- mouse embryonic fibroblast (MEF)-derived adipocytes; type: cell-based; conditions: stimulation 24 h, versus vehicle-treated cells
# Protocol: as §5, §6, §4
# UCP-1 promoter region = test: Chromatin immunoprecipitation (ChIP) at the UCP-1 promoter region in 10T1/2 cells; type: cell-based, mouse
# Protocol: ChIP was performed in Rald versus vehicle stimulated C3H10T1/2 adipocytes using EZ-Magna ChIP™ kit following manufacturer's instructions (Millipore, Billerica, Mass.) and RARa, PGC-1a, or rabbit lgG antibodies as a negative control (all Santa Cruz). lmmunoprecipitated DNA was amplified by real-time PCR using primers specific for the mouse UCP-1 promoter region. Relative PGC-la and RARa occupancy at the UCP-1 promoter was determined normalized to input DNA
# [8] = Established diet-induced obesity in high-fat diet fed C57Bl/6J mice, body weight and fat depot mass; type: in vivo; conditions: HFD 8 weeks before treatment, continued HFD additional 9 weeks, compared to control ASO
# Protocol: (§7) Aldh1a1-deficient (Aldh1a1^4″) mice were backcrossed to a C57BL/6J background (>20 generations). Mice were kept on a standard chow diet with a Vitamin A content of 15 IU/g or on high-fat diet (60% kcal fat, Research Diets, New Brunswick, N.J.) as indicated. Mice had free access to food and water except as indicated under Harvard Medical School Institutional Animal Care and Use Committee guidelines. Experiments were conducted using 12-14 week old female mice unless otherwise indicated.
# (§8) An ASO targeting murine Aldh1a1 and a control ASO not hybridizing to any known murine RNA sequences were synthesized and purified by Isis Pharmaceuticals Inc. (Carlsbad, Calif.) as described previously^39. In vitro characterization including knockdown validation of the Aldh1a1 ASO was done in murine primary hepatocytes. ASOs (70 mg/kg/wk) were administered via intraperitoneal (i.p.) injection twice weekly.
# [9] = Glucose and insulin tolerance tests in high-fat diet fed obese mice; type: in vivo; conditions: HFD obese mice, compared to control ASO
# Protocol: as §8
# Glucose (GTT) and insulin tolerance tests (ITT) were performed on mice after fasting (12 h and 6 h, respectively). Mice were injected i.p. either with D-glucose (Sigma, 0.75 g/kg body weight) or recombinant human regular insulin (0.5 U/kg body weight, Humulin R, Eli Lilly, Indianapolis, Ind.); blood glucose concentrations were measured periodically up to 120 min by glucometer (Abbott Laboratories, Abbott Park, Ill.).
# Aldh1a1 = Aldh1a1 expression in tissues of ASO-treated C57Bl/6J mice; type: in vivo
# Protocol: as §7, §8, §2
# Homogenized tissue was lysed in RIPA buffer (Boston Bioproducts, Ashland, Mass.) containing protease and phosphatase inhibitors. Standard Western blotting was performed using rabbit polyclonal antibody against UCP-1, rabbit monoclonal antibody against Aldh1a1 (both Abcam, Cambridge, UK), GAPDH and f3-Tubulin (both Santa Cruz Biotechnology). Proteins were detected by chemiluminescence (GE HealthCare Amersham, Amersham, UK).
# [10] = Core body temperature under ambient and cold-induced conditions in ASO-treated mice; type: in vivo; conditions: versus Ctrl ASO-treated mice
# Protocol: as §8
# Core body temperature was assessed in mice as before^49,41. WT and Aldh1a1^−/− mice (12 week old, n=6/group) were anesthetized (Ketamine/Xylazine/Acepromazine, 100/10/3 mg/kg i.p.) and a telemetric temperature probe (E-mitter, MiniMitter, Bend, Oreg.) was implanted intra-abdominally. One week after surgery, mice were single-housed in open-circuit Oxymax chambers as part of the Comprehensive Lab Animal Monitoring System (CLAMS; Columbus Instruments, Columbus, Ohio)^42. Oxymax chambers were kept in a temperature enclosure with 12 h light/dark cycles at 23° C. and mice had ad-libitum access to food and water. After a 48 h acclimatization phase, core body temperature was recorded every 10 min for 48 h at ambient temperature (23° C.), followed by 48 h cold stimulation (4° C.). After sacrifice, fat depots were dissected and analyzed.
# UCP-1 [11] = test: UCP-1 expression in fat depots of ASO-treated C57Bl/6J mice; type: in vivo; conditions: chow-fed mice, i.p. 35 mg/kg/dose twice a week for 6 weeks
# Protocol: as §7, §8, §4
# Homogenized tissue was lysed in RIPA buffer (Boston Bioproducts, Ashland, Mass.) containing protease and phosphatase inhibitors. […] Proteins were detected by chemiluminescence (GE HealthCare Amersham, Amersham, UK).
# [12] = each 1 pM, differentiating 10T1/2 cells
# [13] = 1 pM during adipogenic differentiation
# [14] = chow-fed mice, i.p. 35 mg/kg/dose twice a week for 6 weeks, compared to Ctrl ASO
molecule,measurement,setting,value
"CC1=C(/C=C/C(C)=C\C=C\C(C)=C\C(=O)O)C(C)(C)CCC1 [9cisRA, reference compound]",PGC-1a recruitment to RXRa,[1],potently recruited
"Cc1ccc(C2=CCC(C)(C)c3ccc(C#Cc4ccc(C(=O)O)cc4)cc32)cc1 [AGN193109, reference compound]",effect on Rald-mediated UCP-1 expression,UCP-1 [2]; [12],completely inhibited
"CC1=C(/C=C/C(C)=C/C=C/C(C)=C/C(=O)O)C(C)(C)CCC1 [ATRA, all-trans RA, reference compound]",activity of a canonical RARE luciferase reporter,[3],significantly increased
"CN1c2ccc([N+](=O)[O-])cc2N=C(c2ccc(C(=O)O)cc2)c2cc3c(cc21)C(C)(C)CCC3(C)C [HX531, reference compound]",9cisRA-induced expression of the RA target gene Cyp26a1,RXR,significantly inhibit
same,effect on Rald-mediated UCP-1 expression,UCP-1 [2]; [12],did not alter
"CC1=C(/C=C/C(C)=C/C=C/C(C)=C/C=O)C(C)(C)CCC1 [Rald, all trans-Retinal]",UCP-1 mRNA expression increase,UCP-1 [4],100 fold
same,activity of a canonical RARE luciferase reporter,[3],significantly increased
same,UCP-1 promoter luciferase activity,UCP-1 promoter,increased
same,binding to RAR,RAR,can bind
same,EC50,[5],82 nM
same,PGC-1a recruitment to RARa,[5],effectively recruited
same,UCP-1 expression,UCP-1 [6],significantly increased
same,adipogenesis in 3T3-L1 cells,3T3-L1 cells,inhibitor
same,PGC-1a recruitment to RXRa,[1],virtually no effect
same,UCP-1 gene expression increase,UCP-1 [7],40 fold
same,"PGC-1a occupancy at the UCP-1 promoter region, enrichment",UCP-1 promoter region; Rald 1 pM during adipocyte differentiation,5 fold
same,RARa signal at the UCP-1 promoter,"UCP-1 promoter region; after stimulation, versus basal conditions",did not increase further
same,"expression of other BAT markers including PGC-16, PRDM16, and Cidea",UCP-1 [2]; [13],induced
same,expression of the adipogenic gene aP2,UCP-1 [2]; [13],remained unaltered
same,UCP-1 expression induction,UCP-1 [2]; 1 pM during adipogenic differentiation of 10T1/2 cells (white adipocytes),100 fold
same,UCP-1 expression,"UCP-1 [2]; co-stimulation with the Aldh inhibitor DEAB, each 1 pM, differentiating 10T1/2 cells",to the same extent as Rald alone
CC1=C(/C=C/C(C)=C/C=C/C(C)=C/CO)C(C)(C)CCC1 [retinol],UCP-1 promoter luciferase activity,UCP-1 promoter,not and failed to induce
same,binding to RAR,RAR,can bind
"Aldh1a1 ASO: ASO targeting murine Aldh1a1, synthesized by Isis Pharmaceuticals; sequence AACACGACTATGCTGGTTAC (SEQ ID NO: 01) (listed as DNA, chemistry not given here)",GWAT mass,[8],decreased
same,weight gain in obese mice,[8],significantly limited
same,glucose tolerance,[9],improved
same,insulin tolerance,[9],improved
same,Aldh1a1 expression in subcutaneous WAT,Aldh1a1; administered systemically,no effect
same,Aldh1a1 expression in visceral WAT,Aldh1a1; administered systemically,decrease
same,"Aldh1a1 expression in SWAT, BAT, spleen, intestine, and skeletal muscle",Aldh1a1; [14],remained unchanged
same,Aldh1a1 mRNA and protein levels in liver and GWAT,Aldh1a1; [14],significantly decreased
same,core body temperature on cold exposure,"[10]; 4° C., 48 h",protected significantly
same,core body temperature at ambient temperature,[10]; 23° C.,did not differ
same,UCP-1 expression in GWAT,UCP-1 [11],significantly increased
same,UCP-1 expression in SWAT or BAT (significant increase),UCP-1 [11],not
